The results in this text go back to ChEMBL document CHEMBL1122976, “Potential inhibitors of S-adenosylmethionine-dependent methyltransferases. 10. Base- and amino acid modified analogues of S-aristeromycinyl-L-homocysteine” (J Med Chem, 1985).

Assay [1] addresses T1, Catechol O-methyltransferase (Rattus norvegicus) (UniProt P22734).
T1 sequence (whole entry): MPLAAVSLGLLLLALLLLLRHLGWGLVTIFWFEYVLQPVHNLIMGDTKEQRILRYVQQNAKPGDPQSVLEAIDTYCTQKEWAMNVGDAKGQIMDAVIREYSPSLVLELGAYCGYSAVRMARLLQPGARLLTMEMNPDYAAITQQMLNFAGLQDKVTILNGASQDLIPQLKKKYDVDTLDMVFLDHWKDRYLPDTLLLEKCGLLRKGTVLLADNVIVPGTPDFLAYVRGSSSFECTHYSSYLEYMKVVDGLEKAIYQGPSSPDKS
In words: Inhibition of Catechol O-methyltransferase at 2.0 mM.

The target in assay [2] is T2, Phenylethanolamine N-methyltransferase (Bos taurus) (UniProt P10938).
T2 sequence (whole entry): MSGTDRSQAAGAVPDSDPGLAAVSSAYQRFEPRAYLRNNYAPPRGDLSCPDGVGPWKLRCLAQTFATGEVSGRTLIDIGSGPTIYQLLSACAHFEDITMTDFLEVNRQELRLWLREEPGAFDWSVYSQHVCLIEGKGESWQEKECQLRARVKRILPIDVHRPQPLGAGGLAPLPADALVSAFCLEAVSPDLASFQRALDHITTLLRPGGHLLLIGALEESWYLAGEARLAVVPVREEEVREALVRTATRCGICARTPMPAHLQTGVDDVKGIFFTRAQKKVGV
Nature of the assay: Inhibition of PNMT at 2.0 mM.

The target in assay [3] is T2, Phenylethanolamine N-methyltransferase (Bos taurus). Nature of the assay: Inhibition of PNMT at 0.2 mM.
Assay [4] addresses T1, Catechol O-methyltransferase (Rattus norvegicus). Nature of the assay: Inhibition of Catechol O-methyltransferase at 0.2 mM.
The target in assay [5] is Histamine N-methyltransferase (Cavia porcellus) (UniProt Q9EST2). In words: Inhibition of Histamine N-methyl-transferase at 0.2 mM.
Assay [6] shares this target. Nature of the assay: Inhibition of Histamine N-methyl-transferase at 2.0 mM.
For assay [7], the target named is T3, Phenylethanolamine N-methyltransferase (Bos taurus, UniProt P10938).
T3 sequence (P10938 whole entry): T2 sequence (whole entry)
Nature of the assay: Inhibition constant was evaluated against PNMT.

Histamine N-methyltransferase (Cavia porcellus), sequence (Q9EST2 whole entry): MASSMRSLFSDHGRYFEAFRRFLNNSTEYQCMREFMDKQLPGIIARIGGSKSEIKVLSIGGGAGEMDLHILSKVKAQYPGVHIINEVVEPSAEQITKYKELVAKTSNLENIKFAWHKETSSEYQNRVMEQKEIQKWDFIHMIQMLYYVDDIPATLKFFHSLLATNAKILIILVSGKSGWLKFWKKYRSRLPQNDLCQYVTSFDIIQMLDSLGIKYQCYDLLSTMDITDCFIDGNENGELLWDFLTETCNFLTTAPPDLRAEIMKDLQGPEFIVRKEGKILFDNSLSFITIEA

On to `CNc1ncnc2c1ncn2C1O[C@H](CSCCC(N)C(=O)O)[C@@H](O)[C@H]1O` (some centres undefined), for which the inhibition (as a rule, the drop in the measured response relative to a control, in per cent) in assay [1] worked out at 55%; in assay [2], 42%; in assay [3], 11%; in assay [4], 15%; in assay [5], 11%; in assay [6] it was 28%.

For `Nc1ncnc2c1ncn2[C@@H]1O[C@H](CSCC[C@H](N)C(=O)O)[C@@H](O)[C@H]1O` (stereo in doubt; 5) [S-ADENOSYLHOMOCYSTEINE], in assay [7], the affinity, expressed as Ki, was 29 µM.

Consider `Nc1ncnc2c1ncn2[C@@H]1O[C@H](C[S+]([O-])CCC(N)C(=O)O)[C@@H](O)[C@H]1O` (some centres undefined), for which the inhibition in assay [1] was 42%; in assay [2] it was 22%; in assay [3] it was 10%; in assay [4], 14%; in assay [5], 0%; in assay [6], 9%.

For `Nc1ncnc2c1ncn2[C@@H]1O[C@H](CSCC[C@H](N)C(=O)O)[C@@H](O)[C@H]1O` (stereo in doubt; 9) [S-ADENOSYLHOMOCYSTEINE], the Ki – broadly, the dissociation constant of the complex between target and ligand, obtained from inhibition or displacement – in assay [7] is 62.3 µM. That is a double-digit micromolar value.
